Measured values published in patent US6362207B1, “Methods of treating viral infections with benzimidazoles” (priority 1995, dated 2002).

Tested on: Pancreas (Mia-PaCa)
Assay: Pancreas (Mia-PaCa) model, tumor weight
Assay type: in vivo, mice
Settings: 80 mg/kg i.p. on days 1,4,7 and 10; c1 = day 40
Procedure: The dose response effect of carbendazim in mice infected with various cancer types was studied in standard screening tests.
The results of these studies conducted to study the dosage response of carbendazim on various cancer types are summarized below. […] Efficacy of carbendazim has been shown in the following cancers:
In the Pancreas (Mia-PaCa) model, carbendazim at 3000 and 4000 (mg/kg, twice weekly) is as good as or better than gemcitabine. At 2000 mg/kg the carbendazim was not as effective after 21 days. Gemcitabine was given on days 1,4,7 and 10 i.p.; the carbendazim was given p.o. twice weekly.

`Nc1ccn([C@@H]2O[C@H](CO)[C@@H](O)C2(F)F)c(=O)n1` [Gemcitabine, reference compound] gave a tumor weight of 503.7 mg.
